In patent publication US20250042937A1, “RAPID, GREEN, DISULFIDE BOND FORMATION IN WATER USING DICYANOCOBINAMIDE” (Syracuse University, priority 2023, published 2025):

Key:
oxytocin receptor = target: T1, oxytocin receptor (Homo sapiens, UniProt P30559); test: screening at the oxytocin receptor (agonism) after Cbi oxidation; format: cell-based; conditions: peptide oxidized with Cbi; free or conjugated to B12
T1 sequence (P30559 1-389): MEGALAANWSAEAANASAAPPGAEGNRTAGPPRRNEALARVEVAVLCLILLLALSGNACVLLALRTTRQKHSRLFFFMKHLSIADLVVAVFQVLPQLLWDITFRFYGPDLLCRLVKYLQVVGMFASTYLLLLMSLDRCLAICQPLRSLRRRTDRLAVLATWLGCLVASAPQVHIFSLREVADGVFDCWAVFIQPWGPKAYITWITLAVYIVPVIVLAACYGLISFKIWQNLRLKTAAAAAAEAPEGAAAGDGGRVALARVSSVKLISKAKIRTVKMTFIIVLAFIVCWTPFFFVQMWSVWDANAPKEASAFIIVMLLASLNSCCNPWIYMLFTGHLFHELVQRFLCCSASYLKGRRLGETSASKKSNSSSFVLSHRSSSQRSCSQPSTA

rat retinas = conditions: low doses (2-5%); cited from earlier work

Kd (oxytocin receptor)	Molecule	cytotoxicity (rat retinas)
4.39 nM	CC[C@H](C)[C@@H]1NC(=O)[C@H](Cc2ccc(O)cc2)NC(=O)[C@@H](N)CSSC[C@@H](C(=O)N2CCC[C@H]2C(=O)N[C@@H](CCCCN=[N+]=[N-])C(=O)NCC(N)=O)NC(=O)[C@H](CC(N)=O)NC(=O)[C@H](CCC(N)=O)NC1=O [OT]	–
–	C[S+](C)[O-] [DMSO, dimethyl sulfoxide]	cytotoxic
4.63 nM	OT after conjugation to B12: OT peptide conjugated to vitamin B12	–
